Reference: patent publication US20260167620A1, “MULTIFUNCTIONAL COMPOUND CAPABLE OF DEGRADING BTK KINASE, AND COMPOSITION AND USE” (HANGZHOU HEALZEN THERAPEUTICS CO., LTD., priority 2021, published 2026)

What follows are molecules tested against T1, BTK (Homo sapiens, UniProt Q06187) (assay: BTK degradation activity test in Mino cells (Westernblot or Elisa)). Conditions: 24-72 h incubation.
T1 construct: endogenous in cells; host or cells: Mino cells
Format: cell-based
Procedure: The Mino cell line cells are 0.5˜1 million/well in 6-well plates. The compounds are diluted to different concentrations, added to the plate, and after 24-72 h of incubation, the cells are collected. After the cells were lysed, the total protein concentration in each well was determined with a BCA kit. The amount of BTK is determined using the Westernblot or Elisa method.

T1 sequence (Q06187 whole entry): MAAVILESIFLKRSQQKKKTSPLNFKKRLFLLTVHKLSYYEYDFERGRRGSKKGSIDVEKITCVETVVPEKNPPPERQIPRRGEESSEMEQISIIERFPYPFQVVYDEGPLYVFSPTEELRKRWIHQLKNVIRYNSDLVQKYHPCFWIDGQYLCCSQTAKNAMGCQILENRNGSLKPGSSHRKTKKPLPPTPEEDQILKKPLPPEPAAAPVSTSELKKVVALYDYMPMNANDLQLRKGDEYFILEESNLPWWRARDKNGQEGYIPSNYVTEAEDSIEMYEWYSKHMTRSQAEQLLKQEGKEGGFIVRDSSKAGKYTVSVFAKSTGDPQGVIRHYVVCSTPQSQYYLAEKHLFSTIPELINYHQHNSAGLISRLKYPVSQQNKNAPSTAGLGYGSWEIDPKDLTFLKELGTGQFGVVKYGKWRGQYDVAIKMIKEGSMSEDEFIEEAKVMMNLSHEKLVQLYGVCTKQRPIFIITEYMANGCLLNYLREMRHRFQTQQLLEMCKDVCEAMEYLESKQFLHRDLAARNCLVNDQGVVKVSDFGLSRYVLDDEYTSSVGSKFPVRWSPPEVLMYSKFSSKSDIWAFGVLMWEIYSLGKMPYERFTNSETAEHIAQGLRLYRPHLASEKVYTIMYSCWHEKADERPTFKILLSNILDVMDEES

SMILES | DC50 [nM]
CC(OC(=O)C(C)(C)C)N1C(=O)CCC(N2C(=O)c3ccc(N4CCC(CN5CCN(c6ccc(Nc7nc(N8CCCCC8)nnc7C(N)=O)cc6F)CC5)C4)cc3C2=O)C1=O (stereo not shown) [Compound 071, 1-(3-(5-(3-((4-(4-((6-carbamoyl-3-(piperidin-1-yl)-1,2,4-triazin-5-yl)amino)-2-fluorophenyl)piperazin-1-yl)methyl)pyrrolidin-1-yl)-1,3-dioxoisoindolin-2-yl)-2,6-dioxopiperidin-1-yl) ethyl pivalate] | < 10
NC(=O)c1nnc(-c2cccnc2)nc1Nc1ccc(C2CCN(CC3CCN(c4ccc5c(c4)C(=O)N(C4CCC(=O)NC4=O)C5=O)C3)CC2)cc1 (stereo not shown) [Compound 026, 5-((4-(1-((1-(2-(2,6-dioxopiperidin-3-yl)-1,3-dioxoisoindolin-5-yl)pyrrolidin-3-yl)methyl)piperidin-4-yl)phenyl)amino)-3-(pyridin-3-yl)-1,2,4-triazine-6-carboxamide] | < 10
COc1nc(C(N)=O)c(Nc2ccc(C3CCN(CC4CCN(c5ccc6c(c5)C(=O)N(C5CCC(=O)NC5=O)C6=O)C4)CC3)cc2)nc1N1CCCCC1 (stereo not shown) [Compound 043, 3-((4-(1-((1-(2-(2,6-dioxopiperidin-3-yl)-1,3-dioxoisoindolin-5-yl)pyrrolidin-3-yl)methyl)piperidin-4-yl)phenyl)amino)-6-methoxy-5-(piperidin-1-yl) pyrazine-2-carboxamide] | < 10
CC(C)[C@H](N)C(=O)OCN1C(=O)CCC(N2C(=O)c3ccc(N4CCC(CN5CCC(c6ccc(Nc7nc(N8CCCCC8)nnc7C(N)=O)cc6)CC5)C4)cc3C2=O)C1=O (stereo partly drawn) [Compound 073, (3-(5-(3-((4-(4-((6-carbamoyl-3-(piperidin-1-yl)-1,2,4-triazin-5-yl)amino)phenyl)piperidin-1-yl)methyl)pyrrolidin-1-yl)-1,3-dioxoisoindolin-2-yl)-2,6-dioxopiperidin-1-yl) methyl L-valinate] | < 10
NC(=O)c1cnc(N2CCCCC2)nc1Nc1ccc(C2CCN(CC3CCN(c4ccc5c(c4)C(=O)N(C4CCC(=O)NC4=O)C5=O)C3)CC2)c(F)c1 (stereo not shown) [Compound 036, 4-((4-(1-((1-(2-(2,6-dioxopiperidin-3-yl)-1,3-dioxoisoindolin-5-yl)pyrrolidin-3-yl)methyl)piperidin-4-yl)-3-fluorophenyl)amino)-2-(piperidin-1-yl) pyrimidine-5-carboxamide] | < 10
NC(=O)c1cnc(N2CCCCC2)cc1Nc1ccc(C2CCN(CC3CCN(c4ccc5c(c4)C(=O)N(C4CCC(=O)NC4=O)C5=O)C3)CC2)cc1 (stereo not shown) [Compound 038, 4-((4-(1-((1-(2-(2,6-dioxopiperidin-3-yl)-1,3-dioxoisoindolin-5-yl)pyrrolidin-3-yl)methyl)piperidin-4-yl)phenyl)amino)-6-(piperidin-1-yl) nicotinamide] | < 10
NC(=O)c1nnc(N2CCCCC2)nc1Nc1ccc(N2CCN(CC3CN(c4ccc5c(c4)C(=O)N(C4CCC(=O)NC4=O)C5=O)C3)CC2)cc1 (stereo not shown) [Compound 006, 5-((4-(4-((1-(2-(2,6-dioxopiperidin-3-yl)-1,3-dioxoisoindolin-5-yl)azetidin-3-yl)methyl)piperazin-1-yl)phenyl)amino)-3-(piperidin-1-yl)-1,2,4-triazine-6-carboxamide] | < 10
NC(=O)c1nnc(Nc2ccccn2)nc1Nc1ccc(C2CCN(CC3CCN(c4ccc5c(c4)C(=O)N(C4CCC(=O)NC4=O)C5=O)C3)CC2)cc1 (stereo not shown) [Compound 021, 5-((4-(1-((1-(2-(2,6-dioxopiperidin-3-yl)-1,3-dioxoisoindolin-5-yl)pyrrolidin-3-yl)methyl)piperidin-4-yl)phenyl)amino)-3-(pyridin-2-ylamino)-1,2,4-triazine-6-carboxamide] | < 10
NC(=O)c1nnc(Oc2cccc(O)c2)nc1Nc1ccc(C2CCN(CC3CCN(c4ccc5c(c4)C(=O)N(C4CCC(=O)NC4=O)C5=O)C3)CC2)cc1 (stereo not shown) [Compound 027, 5-((4-(m-((1-(2-(2,6-dioxopiperidin-3-yl)-1,3-dioxoisoindolin-5-yl)pyrrolidin-3-yl)methyl)piperidin-4-yl)phenyl)amino)-3-(3-hydroxyphenoxy)-1,2,4-triazine-6-carboxamide] | < 10
NC(=O)c1nnc(N[C@H]2CCCC[C@H]2N)nc1Nc1ccc(C2CCN(CC3CCN(c4ccc5c(c4)C(=O)N(C4CCC(=O)NC4=O)C5=O)C3)CC2)cc1 (stereo partly drawn) [Compound 030, 3-(((1S,2R)-2-aminocyclohexyl)amino)-5-((4-(1-((1-(2-(2,6-dioxopiperidin-3-yl)-1,3-dioxoisoindolin-5-yl)pyrrolidin-3-yl)methyl)piperidin-4-yl)phenyl)amino)-1,2,4-triazine-6-carboxamide] | < 10
CN1CCN(c2nnc(C(N)=O)c(Nc3ccc(N4CCC(CN5CCN(c6ccc(N7CCC(=O)NC7=O)cc6)CC5)CC4)c(F)c3)n2)CC1 [Compound 054, 5-((4-(4-((4-(4-(2,4-dioxotetrahydropyrimidin-1(2H)-yl)phenyl)piperazin-1-yl)methyl)piperidin-1-yl)-3-fluorophenyl)amino)-3-(4-methylpiperazin-1-yl)-1,2,4-triazine-6-carboxamide] | < 10
NC(=O)c1nc(F)c(N2CCCCC2)nc1Nc1ccc(C2CCN(CC3CCN(c4ccc5c(c4)C(=O)N(C4CCC(=O)NC4=O)C5=O)C3)CC2)cc1 (stereo not shown) [Compound 042, 3-((4-(1-((1-(2-(2,6-dioxopiperidin-3-yl)-1,3-dioxoisoindolin-5-yl)pyrrolidin-3-yl)methyl)piperidin-4-yl)phenyl)amino)-6-fluoro-5-(piperidin-1-yl) pyrazine-2-carboxamide] | < 10
NC(=O)c1nnc(N2CCC[C@@H](O)C2)nc1Nc1ccc(C2CCN(CC3CCN(c4ccc5c(c4)C(=O)N(C4CCC(=O)NC4=O)C5=O)C3)CC2)cc1 (stereo partly drawn) [Compound 015, 5-((4-(1-((1-(2-(2,6-dioxopiperidin-3-yl)-1,3-dioxoisoindolin-5-yl)pyrrolidin-3-yl)methyl)piperidin-4-yl)phenyl)amino)-3-((R)-3-hydroxypiperidin-1-yl)-1,2,4-triazine-6-carboxamide] | < 10
NC(=O)c1nnc(N2CCNCC2)nc1Nc1ccc(C2CCN(CC3CCN(c4ccc5c(c4)C(=O)N(C4CCC(=O)NC4=O)C5=O)C3)CC2)cc1 (stereo not shown) [Compound 031, 5-((4-(1-((1-(2-(2,6-dioxopiperidin-3-yl)-1,3-dioxoisoindolin-5-yl)pyrrolidin-3-yl)methyl)piperidin-4-yl)phenyl)amino)-3-(piperazin-1-yl)-1,2,4-triazine-6-carboxamide] | < 10
CC(C)(C)C(=O)OCN1C(=O)CCC(N2C(=O)c3ccc(N4CCC(CN5CCC(c6ccc(Nc7nc(N8CCCCC8)nnc7C(N)=O)cc6)CC5)C4)cc3C2=O)C1=O (stereo not shown) [Compound 062, (3-(5-(3-((4-(4-((6-carbamoyl-3-(piperidin-1-yl)-1,2,4-triazin-5-yl)amino)phenyl)piperidin-1-yl)methyl)pyrrolidin-1-yl)-1,3-dioxoisoindolin-2-yl)-2,6-dioxopiperidin-1-yl) methyl pivalate] | < 10
CN1CCN(c2nnc(C(N)=O)c(Nc3ccc(N4CCC(CN5CCN(c6ccc(N7CCC(=O)NC7=O)cc6)CC5)CC4)nc3)n2)CC1 [Compound 047, 5-((6-(4-((4-(4-(2,4-dioxotetrahydropyrimidin-1(2H)-yl)phenyl)piperazin-1-yl)methyl)piperidin-1-yl)pyridin-3-yl)amino)-3-(4-methylpiperazin-1-yl)-1,2,4-triazine-6-carboxamide] | < 10
